Patent publication US20230107039A1, “SOFT CHEWABLE FORMED BODY FOR THE ADMINISTRATION TO ANIMALS” (Bayer Animal Health GmbH, priority 2020, published 2023)

Experiment: Solubility in a mixture of water and glycerol
Assay type: physicochemical
Conditions: experimental studies, no figures given

SMILES: O=C(C1CCCCC1)N1CC(=O)N2CCc3ccccc3C2C1 (racemic) [praziquantel, (RS)-2-(Cyclohexylcarbonyl)-2,3,4,6,7,11b-hexahydro-1H-pyrazino[2,1-a]isochinoline-4-on]
- solubility in a mixture of water and glycerol: high solubility
